Experimental data reported in patent publication US7589125B2, “2,4-dihydroxybenzoic acid derivatives” (Palau Pharma, S.A., priority 2002, dated 2009).

What was measured:
[1] = test system: human umbilical vein endothelial cells (HUVEC); assay: Cell viability in human non-proliferating cells (HUVEC); type: cell-based; settings: concentrations up to 500 μM, 72 h of incubation
[2] = test system: immune-deficient BNX mice transplanted with human psoriatic skin; assay: Test 2 - Psoriasis model in immune-deficient BNX mice transplanted with human psoriatic skin; type: in vivo; settings: topical ointment at the concentration of 0.1%; p<0.01
Source text: Test 2—Psoriasis Model in Immune-deficient BNX Mice Transplanted with Human Psoriatic Skin
Method: The goal of this study is to assess the effect of the test compounds on the development of a psoriatic lesion, induced by super-antigen-activated human peripheral blood T-cells, in non-lesional skin from a psoriasis patient transplanted onto immune-deficient BNX mice. Mice (male/female, circa 20 g, 5 mice per group) were transplanted with non-lesional skin biopsies from psoriasis patients. Peripheral blood mononuclear cells from the same patients were isolated and stored in freezer until further use. Transplants were allowed to “lake” for 4 weeks. After this period, transplants were treated topically with test compound or control (vehicle) preparations for 1 week. Then, peripheral blood mononuclear cells from psoriatic patients, previously activated in vitro for 2 days with super-antigen, were injected into the transplants intra-dermally. Transplants were treated with test compound or control preparations for two additional weeks. Transplants were then harvested and epidermal thickness was measured by using computer-aided morphometric analysis.

[3] = test system: Male Lewis rats; assay: Test 3 - Inhibition of adjuvant-induced arthritis in the rat; type: in vivo; settings: 10 mg/kg/day p.o. for 28 days
Experimental: Test 3—Inhibition of Adjuvant-induced Arthritis in the Rat
Method: Male Lewis rats with body weight between 140 and 170 g and 7 week-old were used. Before the start of the study animals were acclimated for a period of at least 5 days. Animals were fasted for 18 hours before the study, with water ad libitum. Throughout the study, animals were allowed free access to drinking water, except during observation periods.
Groups of five animals were randomized (Sham, Control and Test compound). The duration of the study was 28 days. Arthritis was induced on day 1 of the study by a single subplantar injection of 0.1 mL of an emulsion prepared with 10 mg Mycobacterium butyricum and 10 mL Freund's incomplete adjuvant (Difco) to the right hindpaw of the animals from the Control (C) and Test compound (T) groups. Sham animals (S) received 0.1 mL Freund's incomplete adjuvant. Test compound was administered daily from day 1 of the study until day 28 at a dose of 10 mg/kg p.o. as a suspension in 1% Tween 80® while the Control group only received the vehicle. On day 28 of the development of arthritis, the volume of the left paw (secondary edema) was determined using a UGO BASILE 7150 plethysmometer. The inhibition of the increase in volume was calculated as follows: % Inh.=100−((T−S)/(C−S))*100 Where: T=Test compound group; C=Control group; and S=Sham group

[4] = test system: splenic lymphocytes from C57BL/6 mice stimulated with splenic lymphocytes from CBA mice; assay: Test 4 - Immunosuppression model: murine mixed lymphocyte reaction; type: cell-based
Experimental: Test 4—Immunosupression Model: Murine Mixed Lymphocyte Reaction
Method: Immunosuppression was assessed by testing the effects of the compounds on the proliferation of splenic lymphocytes from C57BL/6 mice strain stimulated with splenic lymphocytes from CBA mice strain. Splenic lymphocyte populations were isolated from two mouse strains: CBA (acting as stimulating cells) and C57BL/6 (acting as proliferating cells). Homogenized mouse spleen was filtered and subsequently centrifuged at 250×g for 5 minutes at 4° C. The pellets were resuspended in culture medium (RPMI 1640 supplemented with 5% fetal calf serum and 2% antibiotics) and after repeating this process twice they were adjusted to a final density of 5×10^6 cells/mL. The isolated lymphocytes from CBA strain were treated with mitomycin C to block their proliferation.
In a 96-well plate, solutions of the test compounds or culture medium alone (for the control) were distributed. Next, 5×10^5 C57BL/6 cells and 2.5×10^5 CBA cells were added and incubated for 48 h (37° C., 5% CO2). After this preincubation 1 μCi of [^3H]-thymidine and 0.2 mM unlabeled thymidine were added to each well and the mixture was incubated 24 h. […]
Lymphocyte proliferation was measured as [^3H]-thymidine incorporation into the DNA of responding cells (C57BL/6) using a liquid scintillation counter (LS series, Beckman).

[5] = test system: hamster lung fibroblast cell line (V79 cells); assay: Test 5 - Induction of apoptosis in tumor cells (active caspase-3, flow cytometry); type: cell-based
Experimental: Test 5: Induction of Apoptosis in Tumor Cells
Method: The ability of the compounds of the invention to induce apoptosis was determined in a hamster lung fibroblast cell line (V79 cells). To determine the induction of apoptosis a commercially available kit was used (CaspaTag™ Caspase-3 (DEVD) Activity Kit, Intergen); this kit detects the presence in the cells of the active form of the enzyme caspase-3, which is an apoptosis marker. V79 cells were incubated for 72 h in culture medium (DMEM supplemented with 2 mM Glutamine and 10% fetal calf serum) in the presence of test compound (30 and 100 μM; solution in phosphate-buffered saline) or vehicle. Next, cells were washed with phosphate-buffered saline, treated with Trypsin-EDTA solution until the cell layer was dispersed and were resuspended in fresh growth medium at a concentration of 10^6 cells/mL. A 300 μL aliquote of each of the samples was transferred to a tube and was incubated with the irreversible, carboxyfluorescein-labeled peptidic caspase-3 inhibitor FAM-DEVD-FMK for 1 hour at 37° C. in 5% CO2 and protecting the tubes from light following the kit's instructions. […] The inhibitor in excess was washed and the cells were then analyzed by flow cytometry at 488 nm.

[6] = test system: Male Swiss mice; assay: Test 1 - Oxazolone-induced delayed hypersensitivity in mice (ear edema); type: in vivo; settings: topical on right ear, solution in acetone; FIG. 1
Experimental: Test 1—Oxazolone-induced Delayed Hipersensitivity in Mice
Method: Male Swiss mice (25-30 g body weight) were sensitized by the application of a 2% solution of oxazolone (Sigma) in acetone (50 μL) into the shaved abdomen. Seven days later, 25 μL of a 1.5% solution of oxazolone was applied on both surfaces of the right ear of the animals. The left ear served as control and was only treated with the vehicle (acetone). 20 μL of the test compound (dissolved in acetone) or vehicle alone (control) was applied on both sides of the right ear, 24 h before challenge and 1 and 5 h after challenge. To evaluate the edema, mice were killed (by CO2 inhalation) and an 8 mm disc was excised from the right and left ears. The edema was measured by the difference in weight between the two ears and inhibition was expressed as percentage in relation to the control group.

[7] = test system: human peripheral blood mononuclear cells (PBMC); assay: Cell viability in human non-proliferating cells (PBMC); type: cell-based; settings: concentrations up to 500 μM, 72 h of incubation
[8] = target: farnesyltransferase (Homo sapiens, UniProt P49356); settings: Hardcastle et al, Tetrahedron Letters 2001, 42(7), 1363-1365; cited from earlier work
Chain of farnesyltransferase (P49356 whole entry): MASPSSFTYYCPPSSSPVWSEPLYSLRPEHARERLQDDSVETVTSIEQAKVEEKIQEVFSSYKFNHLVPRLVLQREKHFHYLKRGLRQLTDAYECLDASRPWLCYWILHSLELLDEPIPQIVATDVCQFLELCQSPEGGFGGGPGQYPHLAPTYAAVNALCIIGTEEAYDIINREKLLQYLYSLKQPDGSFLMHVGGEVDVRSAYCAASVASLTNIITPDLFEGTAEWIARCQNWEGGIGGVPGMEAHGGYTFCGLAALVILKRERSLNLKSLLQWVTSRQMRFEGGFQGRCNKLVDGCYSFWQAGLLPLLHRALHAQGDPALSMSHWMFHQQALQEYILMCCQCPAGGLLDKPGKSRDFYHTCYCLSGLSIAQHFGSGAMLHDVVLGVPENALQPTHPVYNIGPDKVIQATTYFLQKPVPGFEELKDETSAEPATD

## O=C(O)c1ccc(OCC(F)(F)C(F)(F)F)cc1O [Example 6, 2-Hydroxy-4-(2,2,3,3,3-pentafluoropropoxy)benzoic acid]
[1]
  cell viability: not to affect cell viability
[2]
  inhibition of the increase of the epidermal thickness induced by intradermal injection of activated mononuclear cells: significant inhibition
[3]
  inhibition of the increase in volume of the left paw (secondary edema): significant inhibition
[4]; 300 μM
  inhibition of mice splenic lymphocyte proliferation ([3H]-thymidine incorporation): completely inhibited
[4]; Mus musculus, Splenic lymphocyte, 100 μM, read-out: inhibition of the proliferation of mice splenic lymphocytes
  inhibition at 100 µM: 60%
[5]; 30 and 100 μM, 72 h incubation, FIG. 2
  number of cells containing the active form of caspase-3 (apoptotic cells): concentration-dependent increase
[5]; V79 cells
  morphological observation of the cells (activation of apoptosis): presence of cell membrane blebbing and the formation of apoptotic bodies
[6]
  inhibition of the edema (difference in weight between the two ears): concentration-dependent inhibition of the edema
[7]
  cell viability: not to affect cell viability

## O=C(O)c1c(O)c(F)c(OCCCF)c(F)c1F [2,3,5-trifluoro-4-(3-fluoropropoxy)-6-hydroxybenzoic acid]
[8]
  farnesyltransferase inhibition: inactive

## COC(=O)c1ccc(OCCF)cc1O [Example 4, Methyl 2-hydroxy-4-(2-fluoroethoxy)benzoate]
other
  melting point: 64 °C
